Entries after “also recorded” stand apart in the source; their conditions may differ.
What was measured:
Type in all cases: cell-based, pig
pgEpiSCs [1] = experiment: qRT-PCR of marker gene mRNA in pgEpiSCs in modified 3i/LAF medium
Procedure: Total RNA from pgEpiSCs was extracted using the RNAprep Pure Cell/Bacteria Kit (TIANGEN, DP430), and then reverse transcribed to cDNA using 5×All-in-One RT Master Mix (Abm, G490). PCR was performed on a LightCycler480 II Real Time System (Roche) using 2×RealStar Green Power Mixture (GenStar, A311-05). The data were analyzed using the comparative CT (2^−ΔΔCT) method. ΔCT was calculated using EF1A as an internal control. All experiments were performed in three biological replicates. Primers used for quantitative real-time PCR are listed in the Resource table.
(§1) According to the 3i/LAF medium and its culture method described in Example 1, the inventors tested the requirement for each factor in the 3i/LAF medium for long-term in vitro maintenance of pgEpiSCs on the basis of removing the small molecule inhibitors and cytokines from the culture medium one by one without altering the other conditions.

pgEpiSCs [2] = experiment: Clone morphology and alkaline phosphatase (AP) staining of pgEpiSCs in modified 3i/LAF medium; details: for clone morphology and AP staining signal after removal of the factor: factor removed from 3i/LAF medium, other conditions unchanged, FIG. 2-1A
Procedure: The alkaline phosphatase staining of pgEpiSC was based on the Alkaline Phosphatase Assay Kit (Millipore, SCR004). Specific experimental steps followed the instructions of the kit.
Epiblast from pig E8-E10 embryos was obtained, and the epiblast was treated with TrypLE™ Express followed by repeatedly blowing to disperse into small cell masses. The cell masses were then inoculated into 12-well cell culture dishes (density of the feeder layer cells were approximately 2×10^5 cells/well) supplemented with 750 μL of 3i/LAF medium (Note: 10 μM Y27632 was added into the 3i/LAF medium), wherein the feeder layer cells were mouse embryonic fibroblasts treated with mitomycin C (Selleckchem, S8146) and cultured in an incubator at 37° C., 100% humidity, and 5% CO2. After 12 hrs, another 750 μL of 3i/LAF medium was added without changing the medium, and after 24 hrs, the medium was replaced with fresh 3i/LAF medium (containing 2 μM Y27632). After that, the medium was replaced with fresh medium every 12 hrs, and after the clones grew for 2-3 days, the morphology of the clones was observed and the clones were digested for passaging.
as §1
Experimental method: pgEpiSCs were cultured with the adjusted medium, after which AP staining was performed on the cultured pgEpiSCs of P1 (indicating the pgEpiSCs after 1 passage in the adjusted medium) or P3 (indicating the pgEpiSCs after 3 passages in the adjusted medium). The specific steps of AP staining are described in the section of Experimental Methods described previously.

pgEpiSCs [3] = experiment: Immunostaining of POU5F1 and EOMES in pgEpiSCs; details: factor removed from 3i/LAF medium; FIG. 2-1C
Procedure: Cells were washed with DPBS (Gibco, C14190500BT) and fixed with 4% paraformaldehyde for 30 min at room temperature, then washed with DPBS again, permeabilized in 0.1% Triton X-100 for 20 min and blocked with 3% BSA for 1 hour. Cells were incubated with primary antibody diluted with 3% BSA at 4° C. overnight. Cells were then washed three times for 3 min each with wash buffer (DPBS containing 0.1% Triton X-100 and 0.1% Tween 20). The secondary antibody was diluted, and incubated with wash buffer for 1 hour at room temperature, then washed three times for 5 min each with wash buffer, and then the nuclei were stained with DAPI (Roche Life Science, 10236276001) for 3 min.
as §1

pgEpiSCs [4] = experiment: Cell proliferation, survival and passaging of pgEpiSCs; details: for proliferation and passaging of pgEpiSCs: FGF2 removed and ERK/MEK inhibitor PD0325901 added, FIG. 2-1I to 2-1K
Procedure: pgEpiSCs were cultured in a 12-well plate. Cell samples were inoculated at a density of 2× 10^4 cells per well in triplicate. The number of cells was counted every 12 hours. For each time point, cells were digested and counted using a Luna™ Automated Cell Counter, and the results of three counts were averaged and plotted. The cell doubling time was calculated as follows: doubling time (DT)=24×[lg2/(lgNt−lgN0)], where 24 is the cell culture time (hour); Nt is the number of cells cultured for 48 hours; and No is the number of cells recorded at 24 hours.
as §1

phosphorylated STAT3 = experiment: Western blot of phosphorylated STAT3 in pgEpiSCs; details: with or without LIF; FIG. 2-1M
Procedure: Total proteins were extracted from cells by cell lysis buffer (Beyotime Biotechnology, P0013), and nuclear and cytoplasmic proteins were extracted using the nucleus and cytoplasmic protein extraction kit (Beyotime Biotechnology, P0027) supplemented with protease and phosphatase inhibitor cocktail (Beyotime Biotechnology, P1050) to extract nuclear and cytoplasmic proteins. The concentration of extracted proteins was measured using the Bradford Protein Assay Kit (Bio-red, 5000201). An equal amount of proteins (15 μg) was separated by SDS-PAGE gel electrophoresis, which were transferred from the gel to Immobilon-P transfer membrane (Merck Millipore; pore size: 0.45 μm; IPVH00010). The blots were blocked in 5% nonfat powdered milk (Sangon Biotech, A600669-0250) in TBST (20 mM Tris, pH 7.5; 150 mM NaCl; 0.1% Tween 20) at room temperature for 1 hour and then incubated with primary antibodies diluted in 5% nonfat powdered milk in TBST overnight at 4° C. The next day, the blots were rinsed three times with TBST for 5 minutes each time, then incubated together with HRP-coupled secondary antibody diluted in 5% nonfat powdered milk in TBST for 1 hour at room temperature. The blots were developed with SuperSignal West Dura Extended Duration Substrate (Thermo Fisher Scientific, 34075), and the intensity of the bands of the target proteins was analyzed using CLINX chemiluminescence software. […]

[5] = high concentration of CHIR99021 in the medium, FIG. 2-1E, 2-1F, 2-2C, 2-2D
[6] = factor removed from 3i/LAF medium, FIG. 2-1B
[7] = inhibitor added into the culture medium, FIG. 2-1H
[8] = only IWR-1-endo replaced with XAV939, FIG. 2-2A
[9] = only IWR-1-endo replaced with XAV939, FIG. 2-2B

Compound: Cc1c[nH]c(-c2cnc(NCCNc3ccc(C#N)cn3)nc2-c2ccc(Cl)cc2Cl)n1 [CHIR99021]
- expression of cell proliferation-related genes (LIN28A, C-MYC, ETV4, ETV5) after removal of the factor (pgEpiSCs [1]; factor removed from 3i/LAF medium, FIG. 2-1D): down-regulated
- expression of GATA6 at high concentration (pgEpiSCs [1]; [5]): significant up-regulation; also recorded: up-regulated
- expression of pluripotency marker POU5F1 at high concentration (pgEpiSCs [1]; [5]): down-regulation; also recorded: decreased

Compound: O=C(Nc1cccc2cccnc12)c1ccc(N2C(=O)[C@@H]3[C@H](C2=O)[C@@H]2C=C[C@H]3C2)cc1 [IWR-1-endo]
- clone morphology and AP staining signal after removal of the factor (pgEpiSCs [2]; 2-1L): poorly defined boundaries of the pgEpiSC clone
- expression of core pluripotency factors (NANOG, POU5F1, SOX2, REX1) after removal of the factor (pgEpiSCs [1]; [6]): significant down-regulation
- expression of gastrulation marker genes BMP2, BMP4, EOMES and T after removal of the factor (pgEpiSCs [1]; [6]): up-regulation
- mesodermal and endodermal progenitor marker EOMES immunostaining after removal of the factor (pgEpiSCs [3]): promoting the expression
- pluripotency factor POU5F1 immunostaining after removal of the factor (pgEpiSCs [3]): reduced accumulation or heterogeneity

Compound: O=C(NOC[C@H](O)CO)c1ccc(F)c(F)c1Nc1ccc(I)cc1F [PD0325901]
- proliferation and passaging of pgEpiSCs (pgEpiSCs [4]): could not proliferate or be passaged normally

Compound: NC(=O)c1ccc(-c2nc(-c3ccc4c(c3)OCO4)c(-c3ccccn3)[nH]2)cc1 [SB431542]
- clone morphology after addition of the inhibitor (pgEpiSCs [2]; inhibitor added into the culture medium, FIG. 2-1G, 2-1L): irregular clone morphology
- level of NANOG after addition of the inhibitor (pgEpiSCs [1]; inhibitor added into the culture medium, FIG. 2-1G, 2-1H): dramatic decrease
- BMP4 and BMP downstream transcription factors (ID2, ID3) after addition of the inhibitor (pgEpiSCs [1]; [7]): significant increase
- pluripotency markers (POU5F1, REX1) after addition of the inhibitor (pgEpiSCs [1]; [7]): significant decrease

Compound: COc1ccc(N(C(=O)Oc2c(C)cccc2C)c2ccnc(Nc3ccc(N4CCN(C)CC4)cc3)n2)c(OC)c1 [WH-4-023]
- expression of gastrulation marker genes BMP2, BMP4, EOMES and T after removal of the factor (pgEpiSCs [1]; [6]): up-regulation
- mesodermal and endodermal progenitor marker EOMES immunostaining after removal of the factor (pgEpiSCs [3]): promoting the expression
- pluripotency factor POU5F1 immunostaining after removal of the factor (pgEpiSCs [3]): reduced accumulation or heterogeneity

Compound: Oc1nc(-c2ccc(C(F)(F)F)cc2)nc2c1CSCC2 [XAV939]
- passaging at which AP positivity was lost (figure legend) (pgEpiSCs [2]; IWR-1-endo replacement with XAV939, FIG. 2-2A): around 8 passages of passaging
- maintenance of pluripotency after IWR-1-endo replacement (pgEpiSCs [2]; [8]): unable to maintain pluripotency for a long period of time
- passaging at which AP positivity was lost (pgEpiSCs [2]; [8]): about 8 generations of passaging
- expression of core pluripotency factor OCT4 (POU5F1) after IWR-1-endo replacement (pgEpiSCs [1]; [9]): down-regulated
- expression of pluripotency factors REX1, STELLA and ESRRB after IWR-1-endo replacement (pgEpiSCs [1]; [9]): down-regulated

Compound: Activin A: TGF-β superfamily member, cytokine of the 3i/LAF medium (Peprotech, 120-14E)
- level of pluripotency marker NANOG after removal of the factor (pgEpiSCs [1]; factor removed from 3i/LAF medium, FIG. 2-1G, 2-1H): decrease

Compound: FGF2: fibroblast growth factor, cytokine of the 3i/LAF medium (Peprotech, 100-18B)
- proliferation and passaging of pgEpiSCs (pgEpiSCs [4]): could not proliferate or be passaged normally
- proliferative capacity of pgEpiSCs on decreasing the concentration (pgEpiSCs [4]; decreasing FGF2 concentration, all other conditions unchanged, FIG. 2-1K): significantly reduced
- cell proliferation at high concentrations (pgEpiSCs [4]; high concentrations of FGF2, FIG. 2-1K): faster cell proliferation

Compound: LIF: cytokine of the 3i/LAF medium (PeproTech, 300-05)
- detection of phosphorylated STAT3 (phosphorylated STAT3): could be detected only in the presence of LIF
- clone morphology and AP staining signal after removal of the factor (pgEpiSCs [2]; 2-1L): not necessary to maintain the morphology

From patent US20240392240A1, “PIG EMBRYO-DERIVED PLURIPOTENT STEM CELLS AND USE THEREOF” (CHINA AGRICULTURAL UNIVERSITY, priority 2021, published 2024)
